One test deals with T1, human β3 adrenergic receptor (Homo sapiens, UniProt P13945).
T1 construct: expressed in transfected cells; host or cells: Chinese hamster ovary (CHO) cells, stably transfected
T1 sequence (P13945 whole entry): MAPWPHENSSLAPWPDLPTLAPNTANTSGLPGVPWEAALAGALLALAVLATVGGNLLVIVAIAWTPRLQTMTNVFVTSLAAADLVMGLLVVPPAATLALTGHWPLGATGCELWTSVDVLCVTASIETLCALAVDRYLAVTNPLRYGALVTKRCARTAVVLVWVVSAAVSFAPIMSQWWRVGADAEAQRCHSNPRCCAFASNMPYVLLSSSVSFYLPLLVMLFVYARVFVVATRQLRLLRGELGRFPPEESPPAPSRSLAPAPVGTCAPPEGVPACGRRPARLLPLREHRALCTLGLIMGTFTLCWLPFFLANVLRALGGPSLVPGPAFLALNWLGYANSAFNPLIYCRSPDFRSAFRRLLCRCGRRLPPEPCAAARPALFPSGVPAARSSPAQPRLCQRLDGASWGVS
Description: Beta-3 agonist in vitro functional assay: cAMP production (LANCE TR-FRET) in CHO cells stably transfected with the cloned β3 receptor. Type of test: cell-based. The following applies: Table 4; cAMP, CHO cells; read-out: Human β3 agonist functional activity. The method in brief:
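CHO cells stably expressing the cloned receptor, in HEPES-buffered HBSS with BSA and 0.6 mM IBMX, 6,000 cells/well, exposed to compound for 30 min at RT. cAMP read by LANCE TR-FRET against a cAMP standard curve. Isoproterenol defines maximal stimulation.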
In general terms: Changes in cAMP serve as a functional read-out for many G protein-coupled receptors.
Turning to `O=C(c1ccc(C[C@@H]2CC[C@H]([C@H](O)c3ccccc3)N2)cc1)N1CCC2c3ccccc3OC2C1` (stereo partly drawn) [Example 56], the EC50 was 1 to 9.9 nM.
Consider `O=C(c1ccc(C[C@@H]2CC[C@H]([C@H](O)c3ccccc3)N2)cc1)N1CCCC1c1nccs1` (stereo partly drawn) [Example 15], for which the EC50 fell in the range of 100 to 999 nM.
Still for that read-out and setting: the result for `CCOC(=O)C1CCCN(C(=O)c2ccc(C[C@@H]3CC[C@H]([C@H](O)c4ccccc4)N3)cc2)C1` (stereo partly drawn) [Example 31] reads 10 to 99.9 nM.
Same read-out and setting: the result for `COc1ccc2c(c1)C(=O)CC1(CCCN(C(=O)c3ccc(C[C@@H]4CC[C@H]([C@H](O)c5cccnc5)N4)cc3)C1)O2` (stereo partly drawn) [Example 42] reads 100 to 999 nM; that for `CC1(O)CCN(C(=O)c2ccc(C[C@@H]3CC[C@H]([C@H](O)c4ccccc4)N3)cc2)C1` (stereo partly drawn) [Example 12], 100 to 999 nM; that for `CCS(=O)(=O)n1cc2c(n1)CN(C(=O)c1ccc(C[C@@H]3CC[C@H]([C@H](O)c4ccccc4)N3)cc1)C2` [Example 29], 100 to 999 nM.
As for `CCOC(=O)C1(S(C)(=O)=O)CCCN(C(=O)c2ccc(C[C@@H]3CC[C@H]([C@H](O)c4ccccc4)N3)cc2)C1` (stereo partly drawn) [Example 36], the EC50 fell in the range of 10 to 99.9 nM.

The same test, now with this note: Table 5; cAMP, CHO cells; read-out: Human β3 agonist functional activity.
As to `O=C(c1ccc(C[C@@H]2CC[C@H]([C@H](O)c3ccccc3)N2)cc1)N1CCC(S(=O)(=O)O)CC1` [Example 141], the EC50 fell in the range of 10 to 99.9 nM.
Still for that read-out and setting: the figure for `Cc1nnn(C2CCN(C(=O)c3ccc(C[C@@H]4CC[C@H]([C@H](O)c5ccccc5)N4)cc3)CC2)n1` [Example 104] is 100 to 999 nM; for `O=C(c1ccc(C[C@@H]2CC[C@H]([C@H](O)c3ccccc3)N2)cc1)N1CCC(S(=O)(=O)C2CCCC2)CC1` [Example 126] it is 10 to 99.9 nM.
The same measure, in the same setting: the figure for `O=C(c1ccc(C[C@@H]2CC[C@H]([C@H](O)c3ccccc3)N2)cc1)N1CCC(S(=O)(=O)c2ccccc2F)CC1` [Example 132] is 1 to 9.9 nM.
Still for that read-out and setting: the figure for `O=C(c1ccc(C[C@@H]2CC[C@H]([C@H](O)c3ccccc3)N2)cc1)N1CCC(c2ncc(-c3ccccc3)[nH]2)CC1` [Example 79] is 100 to 999 nM; for `Cc1cn(C2CCN(C(=O)c3ccc(C[C@@H]4CC[C@H]([C@H](O)c5ccccc5)N4)cc3)CC2)nn1` [Example 95] it is 10 to 99.9 nM.

The same test, now with this note: Table 7; cAMP, CHO cells; ranges as given for Tables 6 and 7; read-out: Human β3 agonist functional activity.
For `N#CC1(c2ncccn2)C2CN(C(=O)c3ccc(C[C@@H]4CC[C@H]([C@H](O)c5ccccc5)N4)cc3)CC21` (stereo partly drawn) [Example 237], the EC50 was 10 to 99.9 nM.

Staying with this test, now noted: Table 8; Beta-3 agonist in vitro functional assay; read-out: Human β3 agonist functional activity.
As to `Cc1nnc(C2(C3CCCCC3)CCN(C(=O)c3ccc(C[C@@H]4CC[C@H]([C@H](O)c5ccccc5)N4)cc3)CC2)o1` [Example 249], the EC50 was 100 to 999 nM.
Still for that read-out and setting: the figure for `O=C(c1ccc(C[C@@H]2CC[C@H]([C@H](O)c3ccccc3)N2)cc1)N1CCC2(CC1)C(=O)NCC2c1ccccn1` (stereo partly drawn) [Example 266] is 1 to 9.9 nM.
Regarding `O=C1CC2(CCN(C(=O)c3ccc(C[C@@H]4CC[C@H]([C@H](O)c5cccnc5)N4)cc3)CC2)Sc2ccccc21` [Example 327], the EC50 was in the range of 10 to 99.9 nM.
On to `O=C1NC(=O)C2(CCN(C(=O)c3ccc(C[C@@H]4CC[C@H]([C@H](O)c5ccccc5)N4)cc3)CC2)N1` [Example 267], for which the EC50 was 10 to 99.9 nM.
On the same count and under the same terms, the result for `CC1C(=O)c2cc(S(C)(=O)=O)ccc2OC12CCN(C(=O)c1ccc(C[C@@H]3CC[C@H]([C@H](O)c4ccccc4)N3)cc1)CC2` (stereo partly drawn) [Example 335] reads 10 to 99.9 nM; that for `O=C(c1ccc(C[C@@H]2CC[C@H]([C@H](O)c3ccccc3)N2)cc1)N1CCC2(CC1)C(=O)Oc1ccccc12` [Example 290], 10 to 99.9 nM.
For `O=C(c1ccc(CC2CCC(C(O)c3ccccc3)N2)cc1)N1CCC2(CCCC2=NO)CC1` (stereo not drawn) [Example 317], the EC50 was in the range of 10 to 99.9 nM.
Same read-out and setting: the result for `CC1(C)OCC2(CCN(C(=O)c3ccc(C[C@@H]4CC[C@H]([C@H](O)c5ccccc5)N4)cc3)CC2)C1O` (stereo partly drawn) [Example 313] reads 100 to 999 nM.
Same read-out and setting: the figure for `O=C1NCC2(CCN(C(=O)c3ccc(C[C@@H]4CC[C@H]([C@H](O)c5ccccc5)N4)cc3)CC2)O1` [Example 272] is 100 to 999 nM.
Still for that read-out and setting: the result for `CC1(C)CC2(CCN(C(=O)c3ccc(C[C@@H]4CC[C@H]([C@H](O)c5ccccc5)N4)cc3)CC2)CO1` [Example 312] reads 100 to 999 nM.
Turning to `O=C(c1ccc(C[C@@H]2CC[C@H]([C@H](O)c3ccccc3)N2)cc1)N1CCC2(CCNC2=O)CC1` [Example 250], the EC50 was 10 to 99.9 nM.
On the same count and under the same terms, the result for `O=C1OC2(CCN(C(=O)c3ccc(C[C@@H]4CC[C@H]([C@H](O)c5ccccc5)N4)cc3)CC2)c2ncccc21` [Example 287] reads 10 to 99.9 nM; that for `O=C1CC2(CCN(C(=O)c3ccc(C[C@@H]4CC[C@H]([C@H](O)c5ccccc5)N4)cc3)CC2)Oc2ccccc21` [Example 323], 10 to 99.9 nM.
The same measure, in the same setting: the figure for `O=C1OC2(CCN(C(=O)c3ccc(C[C@@H]4CC[C@H]([C@H](O)c5ccccc5)N4)cc3)CC2)c2ccccc21` [Example 283] is 10 to 99.9 nM.

Still in this test, the particulars now being: Table 9; Beta-3 agonist in vitro functional assay; read-out: Human β3 agonist functional activity.
Take `O=C(c1ccc(C[C@@H]2CC[C@H]([C@H](O)c3ccccc3)N2)cc1)N1CCN(c2ncccc2O)CC1` [Example 360]: the EC50 lay within 10 to 99.9 nM.
Still for that read-out and setting: the figure for `Cn1ncnc1CN1CCN(C(=O)c2ccc(C[C@@H]3CC[C@H]([C@H](O)c4ccccc4)N3)cc2)CC1` [Example 397] is 10 to 99.9 nM; for `O=C(c1ccc(C[C@@H]2CC[C@H]([C@H](O)c3ccccc3)N2)cc1)N1CCN(c2nsc3ccccc23)CC1` [Example 386] it is 10 to 99.9 nM.
`CC(c1nnco1)N1CCN(C(=O)c2ccc(C[C@@H]3CC[C@H]([C@H](O)c4ccccc4)N3)cc2)CC1` (stereo partly drawn) [Example 421]: the EC50 was in the range of 10 to 99.9 nM.

Still in this test, the particulars now being: Table 10; Beta-3 agonist in vitro functional assay; read-out: Human β3 agonist functional activity.
Turning to `CC(C(=O)N1CC(O)(c2ccccc2)C1)N1CCN(C(=O)c2ccc(C[C@@H]3CC[C@H]([C@H](O)c4ccccc4)N3)cc2)CC1` (stereo partly drawn) [Example 474], the EC50 was in the range of 1 to 9.9 nM.
On the same count and under the same terms, the figure for `CC(C(=O)NCC1(C)CCC1)N1CCN(C(=O)c2ccc(C[C@@H]3CC[C@H]([C@H](O)c4ccccc4)N3)cc2)CC1` (stereo partly drawn) [Example 453] is 1 to 9.9 nM.
Still for that read-out and setting: the result for `CC(C(=O)N(C)CCC#N)N1CCN(C(=O)c2ccc(C[C@@H]3CC[C@H]([C@H](O)c4ccccc4)N3)cc2)CC1` (stereo partly drawn) [Example 521] reads 10 to 99.9 nM; that for `CC(C(=O)NC1CCCC1)N1CCN(C(=O)c2ccc(C[C@@H]3CC[C@H]([C@H](O)c4ccccc4)N3)cc2)CC1` (stereo partly drawn) [Example 456], 10 to 99.9 nM; that for `CC(C(=O)N1CCCC2(CCCO2)C1)N1CCN(C(=O)c2ccc(C[C@@H]3CC[C@H]([C@H](O)c4ccccc4)N3)cc2)CC1` (stereo partly drawn) [Example 497], 10 to 99.9 nM.
On the same count and under the same terms, the figure for `CC(C(=O)N1C(C)CCC1C)N1CCN(C(=O)c2ccc(C[C@@H]3CC[C@H]([C@H](O)c4ccccc4)N3)cc2)CC1` (stereo partly drawn) [Example 479] is 10 to 99.9 nM.
Consider `CC(C(=O)N1CCc2ncccc2C1)N1CCN(C(=O)c2ccc(C[C@@H]3CC[C@H]([C@H](O)c4ccccc4)N3)cc2)CC1` (stereo partly drawn) [Example 507], for which the EC50 lay in the range of 10 to 99.9 nM.
On the same count and under the same terms, the figure for `CCN(CCO)C(=O)C(C)N1CCN(C(=O)c2ccc(C[C@@H]3CC[C@H]([C@H](O)c4ccccc4)N3)cc2)CC1` (stereo partly drawn) [Example 520] is 10 to 99.9 nM; for `CC(C)NC(=O)C(C)N1CCN(C(=O)c2ccc(C[C@@H]3CC[C@H]([C@H](O)c4ccccc4)N3)cc2)CC1` (stereo partly drawn) [Example 437] it is 100 to 999 nM; for `CC(C(=O)N1CCC[C@H]1C(N)=O)N1CCN(C(=O)c2ccc(C[C@@H]3CC[C@H]([C@H](O)c4ccccc4)N3)cc2)CC1` (stereo partly drawn) [Example 478] it is 100 to 999 nM.

The same test, now with this note: Table 11; cAMP, CHO cells; read-out: Human β3 agonist functional activity.
With `C[C@@H]1CN(C(=O)c2ccc(C[C@@H]3CC[C@H]([C@H](O)c4ccccc4)N3)cc2)C[C@H](C)N1Cc1ccccn1` [Example 533], the EC50 lay in the range of 100 to 999 nM.
Same read-out and setting: the result for `C[C@H]1CN(C(=O)c2ccc(C[C@@H]3CC[C@H]([C@H](O)c4ccccc4)N3)cc2)CCN1Cc1ccccn1` [Example 528] reads 10 to 99.9 nM; that for `C[C@H](c1ccccn1)N1CC2CC1CN2C(=O)c1ccc(C[C@@H]2CC[C@H]([C@H](O)c3ccccc3)N2)cc1` (stereo partly drawn) [Example 537], 100 to 999 nM; that for `O=C(c1ccc(C[C@@H]2CC[C@H]([C@H](O)c3ccccc3)N2)cc1)N1CCN2C(=O)CCC2C1` (stereo partly drawn) [Example 550], 100 to 999 nM.
On the same count and under the same terms, the result for `O=C1CN(C(=O)c2ccc(C[C@@H]3CC[C@H]([C@H](O)c4ccccc4)N3)cc2)CCN1Cc1ccccn1` [Example 545] reads 100 to 999 nM.

The same test, now with this note: Table 12; human β3 functional activity given as ranges; read-out: Human β3 agonist functional activity.
As to `O=C(c1ccc(CC2CCC(C(O)c3ccccc3)N2)cc1)N1CCN(C(c2ccccn2)C2CC2)CC1` (single isomer, unassigned) [Example 590], the EC50 lay within 1 to 9.9 nM.
The same measure, in the same setting: the result for `O=C(c1ccc(CC2CCC(C(O)c3ccccc3)N2)cc1)N1CCN(C2CCN(C3CC3)C2=O)CC1` (single isomer, unassigned) [Example 608] reads 10 to 99.9 nM; that for `O=C1CC(c2ccccc2)C2(CCN(C(=O)c3ccc(CC4CCC(C(O)c5cccnc5)N4)cc3)CC2)O1` (single isomer, unassigned) [Example 559], 100 to 999 nM.
Same read-out and setting: the result for `CCC1CC2(CCN(C(=O)c3ccc(CC4CCC(C(O)c5ccccc5)N4)cc3)CC2)C(=O)O1` (single isomer, unassigned) [Example 564] reads 1 to 9.9 nM; that for `O=C(c1ccc(CC2CCC(C(O)c3ccccc3)N2)cc1)N1CCN(C2CCc3cccnc32)CC1` (single isomer, unassigned) [Example 597], 1 to 9.9 nM.
Still for that read-out and setting: the result for `O=C(c1ccc(C[C@@H]2CC[C@H]([C@H](O)c3ccccc3)N2)cc1)N1CCN(C2COc3cccnc32)CC1` (single isomer, unassigned) [Example 600] reads 1 to 9.9 nM.
Regarding `CC(c1ncccc1Cl)N1CCN(C(=O)c2ccc(CC3CCC(C(O)c4ccccc4)N3)cc2)CC1` (single isomer, unassigned) [Example 594], the EC50 was 1 to 9.9 nM.

The record behind these values is US8354403B2, “Pyrrolidine derived beta 3 adrenergic receptor agonists” (Merck Sharp & Dohme Corp., priority 2009, dated 2013).
